Assay results taken from US7820025B2, “Methods of synthesizing an oxidant and applications thereof” (Ferrate Treatment Technologies, LLC, priority 2000, dated 2010).

What was measured:
[1] = test system: sulfite-reducing clostridia; settings: chlorine resistant bacteria; cited from earlier work
biofilm = settings: model condensers dosed with 10^−5 M solutions of ferrate twice a day, for 5 minutes; cited from earlier work
virus f2 = settings: low concentrations in water; cited from earlier work
Heterotrophic bacteria = test: Ferrate disinfection test of harbor waters, Heterotrophic bacterial plate count (HPC); assay type: cell-based; settings: for HPC: ferrate dose 2.0 mg/L FeO4^2−
Text: (§1) We have conducted preliminary ferrate disinfection tests of harbor waters at two locations in the Port of Cape Canaveral, Fla. Sample A was collected at the inner Port, while Sample B was collected closer to the exit at the Port nearer to the open ocean.

Total Coliform = test: Ferrate disinfection test of harbor waters, Total Coliform count; assay type: cell-based
Text: as §1

aerobic spore-formers = settings: chlorine resistant bacteria; cited from earlier work
total coliforms = settings: water sources collected worldwide; cited from earlier work
E. coli = test: Ferrate disinfection test of harbor waters, E. coli count; assay type: cell-based
Text: as §1

[2] = harbor water Sample A, ferrate dose 1.0 mg/L FeO4^2−
[3] = harbor water Sample A, ferrate dose 2.0 mg/L FeO4^2−
[4] = harbor water Sample B, ferrate dose 1.0 mg/L FeO4^2−
[5] = harbor water Sample B, ferrate dose 2.0 mg/L FeO4^2−

[O]=[Fe](=[O])([O-])[O-] [Ferrate, ferrate]
killing of sulfite-reducing clostridia [1]: effectively killed | biofilm growth (biofilm): inhibited | inactivation of virus f2 (virus f2): rapidly inactivates | HPC (Heterotrophic bacteria; harbor water Sample A): <5 cfu/mL | HPC (Heterotrophic bacteria; harbor water Sample B): <5 cfu/mL | levels of Heterotrophic bacteria after ferrate (in words) (Heterotrophic bacteria; samples A and B, dose of approximately 2 mg/L): reduced to non-detectable values | total coliform level after ferrate addition (in words) (Total Coliform; Sample A, ferrate dose 0.5 mg/L): reduced to non-detectable levels | Total Coliform (Total Coliform; harbor water Sample A (inner Port, Port of Cape Canaveral), ferrate dose 0.5 mg/L FeO4^2−): <1 MPN/100 mL | Total Coliform (Total Coliform; [2]): <1 MPN/100 mL | Total Coliform (Total Coliform; [3]): <1 MPN/100 mL | Total Coliform (Total Coliform; harbor water Sample B (near Port exit), ferrate dose 0.5 mg/L FeO4^2−): <1 MPN/100 mL | Total Coliform (Total Coliform; [4]): <1 MPN/100 mL | Total Coliform (Total Coliform; [5]): <1 MPN/100 mL | reduction of spore-formers (aerobic spore-formers): up to 3 log units | removal of total coliforms (total coliforms): complete removal | disinfection for E. coli (in words) (E. coli; both samples, dose 0.5 mg/L): effective in killing E. coli | E. Coli (E. coli; harbor water Sample A, ferrate dose 0.5 mg/L FeO4^2−): <1 MPN/100 mL | E. Coli (E. coli; [2]): <1 MPN/100 mL | E. Coli (E. coli; [3]): <1 MPN/100 mL | E. Coli (E. coli; harbor water Sample B, ferrate dose 0.5 mg/L FeO4^2−): <1 MPN/100 mL | E. Coli (E. coli; [4]): <1 MPN/100 mL | E. Coli (E. coli; [5]): <1 MPN/100 mL
